The subject of one data set is HBV wild-type. Particulars: cited from earlier work.
The subject of data set [1] is lamivudine-entecavir resistant clone (L180M+M204V+S202G). To be noted: resistant mutant (L180M+M204V+S202G); cited from earlier work.
Data set [2] can be described thus: Metabolic stability in human liver S9 fraction. To be noted: pH 7.4. The format is in vitro ADME. How it is done:
The human liver S9 fraction metabolic stability in human liver microsomal fraction of Macroheterocyclic nucleoside derivative represented by formula 1 and 2 and Sovaldi. Stock solutions of test compounds and PSI-352707 (10 mM) were prepared in DMSO and stored at −20° C. 10-× standard solutions of PSI-352707 (10, 8, 5, 2 and 1 μM) were prepared by dilution stock solution with water-acetonitrile mixture (1/1, v/v). The reaction mixture was prepared in a total volume of 350.5 μL containing 0.1 M potassium phosphate buffer (pH 7.4), 1 mM NADPH, 7 mM G6P, 1.5 U/mL G6PDH, 3.3 mM MgCl2, 5 mM UDPGA, 122 μLdeionised water and 1 μM test compound. The reaction mixture was pre-incubated at 400 rpm, 37° C. The reaction was initiated by adding 1 mg/mL human liver S9 fraction to the reaction mixture and incubated at 400 rpm, 37° C. […]
ABSciex QTrap 5500 Source (TurboIonSpray) was operated in negative ionization mode (Source temperature 650° C., Source gas 1 and Source gas 2-65 and 40 psi respectively). PSI-352707 and IS (tolbutamide) were detected in MRM mode by transitions with m/z 410 to 150 for H027-4261 (collision energy […]) and 269/170 for tolbutamide (collision energy […]). […] Data analysis and quantitation was performed in Analyst 1.5.2 Software (AB Sciex).

A further data set is described as follows: physchem. Particulars: simulated gi fluid.
The next data set deals with T1, HCV NS5B RNA-polymerase (Hepatitis C virus genotype 1a, UniProt P27958).
T1 construct: HCV NS5B RNA-polymerase
Particulars: versus PSI-6206, Gemcitabine and 2′-C-Methylcytidine; cited from earlier work.

Another data set has as its system HCV replicon. To be noted: cited from earlier work.
For data set [3] the following is noted: in the clinic; cited from earlier work.
Data set [4] has as its system xenografts models of human pancreatic cancer. To be noted: in vivo; cited from earlier work.

A value given as a limit tells only on which side of the number the result lay.

The text below walks through data of patent US10266558B2, “Macroheterocyclic nucleoside derivatives and their analogues, production and use thereof” (ASAVI, LLC, priority 2016, dated 2019).

T1 sequence (P27958 2421-3011): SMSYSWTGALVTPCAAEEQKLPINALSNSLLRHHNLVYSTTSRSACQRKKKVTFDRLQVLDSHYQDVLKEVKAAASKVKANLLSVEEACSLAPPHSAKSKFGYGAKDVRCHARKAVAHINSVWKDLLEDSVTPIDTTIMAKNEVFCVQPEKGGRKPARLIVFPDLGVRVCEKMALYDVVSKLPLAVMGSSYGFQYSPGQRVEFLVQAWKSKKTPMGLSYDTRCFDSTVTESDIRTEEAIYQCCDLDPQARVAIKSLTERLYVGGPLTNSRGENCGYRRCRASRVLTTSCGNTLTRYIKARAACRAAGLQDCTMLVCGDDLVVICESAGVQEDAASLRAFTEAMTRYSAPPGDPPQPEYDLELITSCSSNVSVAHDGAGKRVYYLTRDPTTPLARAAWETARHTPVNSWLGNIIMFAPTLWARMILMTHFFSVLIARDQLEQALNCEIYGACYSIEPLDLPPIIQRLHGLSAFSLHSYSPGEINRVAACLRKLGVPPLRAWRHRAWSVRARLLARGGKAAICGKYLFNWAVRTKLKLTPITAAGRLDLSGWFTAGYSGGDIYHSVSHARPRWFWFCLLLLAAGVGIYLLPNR

The term EC50 denotes the concentration that produces a half-maximal response. For the compound “2′-Fluoro-6′-methylene-carbocyclic adenosine phosphoramidate [5′-phosphoramidate of FMCA]”, the EC50 was 620 nM in the data set with HBV wild-type (HBV replication, wild-type) and 54 nM in data set [1]. In the data set with HBV wild-type (against both the wild-type and resistant mutant), the “more potent than FMCA” value is on record as 10 fold.

The half-life is the time needed for the level to fall by half in the phase considered. Higher therefore signals slow decline. As to `C[C@@H]1N[P@@](=O)(Oc2ccccc2)OC[C@H]2O[C@@H](n3ccc(=O)[nH]c3=O)[C@](C)(F)[C@@H]2OC(=O)CCCOC1=O` [1(13)], the half-life at 1 μM in data set [2] was above 12.4 h. In addition, in the data set “physchem”, the half-life is above 24 h.

Take `CC(C)OC(=O)[C@H](C)NP(=O)(OC[C@H]1O[C@@H](n2ccc(N)nc2=O)C(F)(F)[C@@H]1O)Oc1ccccc1` (some centres unmarked) [AVI-4201]: the “inhibitory activity compared with the corresponding nucleoside” value on HCV NS5B RNA-polymerase is listed as “by orders of magnitude higher”.

For `Nc1ccn([C@@H]2O[C@H](COP(=O)(N[C@H]3CCOC3=O)Oc3ccccc3)[C@@H](O)C2(F)F)c(=O)n1` (some centres unmarked) [AVI-4203], the “inhibitory activity compared with the corresponding nucleoside” value on HCV NS5B RNA-polymerase is recorded as “by orders of magnitude higher”.

As for `CC(C)OC(=O)[C@H](C)NP(=O)(OC[C@H]1O[C@@H](n2ccc(NO)nc2=O)[C@](C)(O)[C@@H]1O)Oc1ccccc1` (some centres unmarked) [CC-1845], the “inhibitory activity compared with the corresponding nucleoside” value at HCV NS5B RNA-polymerase was “by orders of magnitude higher”.

As for `CC(C)(CO)C(=O)SCCOP(=O)(COC[C@H]1OC(n2cnc3c(=O)[nH]c(N)nc32)[C@](C)(O)[C@@H]1O)NCc1ccccc1` (some centres unmarked) [IDX-184], the 50% effective concentration (EC50) with HCV replicon is 400 nM.

As to `COc1nc(N)nc2c1ncn2[C@@H]1O[C@H](COP(=O)(N[C@@H](C)C(=O)OCC(C)(C)C)Oc2cccc3ccccc23)[C@@H](O)[C@@]1(C)O` (some centres unmarked) [INX-08189], the concentration giving a half-maximal response (EC50) in the data set with HCV replicon is 10 nM. The cardiovascular toxicity result in data set [3] is reported as “severe cardiovascular toxicity”.

As to `C[C@H](NP(=O)(OC[C@H]1O[C@@H](n2ccc(N)nc2=O)C(F)(F)[C@@H]1O)Oc1ccccc1)C(=O)OCc1ccccc1` (some centres unmarked) [NUC-1031, Gemcitabin-5′-phosphoramidate], in data set [4], the tumor volume entry is listed as “significantly reduced tumor volume”.

Usually EC90 stands for the concentration needed for an effect of 90%. Take `COc1nc(N)nc2c1ncn2[C@@H]1O[C@H](COP(=O)(N[C@@H](C)C(=O)OC(C)C)Oc2ccccc2)[C@@H](O)[C@@]1(C)F` (some centres unmarked) [PSI-353661]: in the data set with HCV replicon (replicon assay), the EC90 is 8 nM and the “increase in potency compared to the guanosine analogue β-D-2′-deoxy-2′-R-fluoro-2′-β-C-methylguanosine” value is 1000 fold.

Consider `CC(C)OC(=O)[C@H](C)N[P@](=O)(OC[C@H]1O[C@@H](n2ccc(=O)[nH]c2=O)[C@](C)(F)[C@@H]1O)Oc1ccccc1` [Sovaldi®, sofosbuvir], for which the half-life at 1 μM in data set [2] is above 1.8 h. For the same compound, on HCV NS5B RNA-polymerase, the “inhibitory activity compared with the corresponding nucleoside” value is “by orders of magnitude higher”. In addition, the half-life in the data set “physchem” was 15 h.
